Reference: ChEMBL document CHEMBL6121063, “Identification of a Potent and Selective CDK9 Degrader as a Targeted Therapeutic Option for the Treatment of Small-Cell Lung Cancer” (J Med Chem, 2025)

Tests used:
[1] = biological target: Cyclin-dependent kinase 1 (Homo sapiens, UniProt P06493)
[2] = biological target: Cyclin-dependent kinase 2 (Homo sapiens, UniProt P24941); assay: Inhibition of CDK2 (unknown origin)
[3] = biological target: Cyclin-dependent kinase 5 (Homo sapiens, UniProt Q00535)
[4] = biological target: Cyclin-dependent kinase 4 (Homo sapiens, UniProt P11802); assay: Inhibition of CDK4 (unknown origin)
[5] = biological target: Cyclin-dependent kinase 3 (Homo sapiens, UniProt Q00526); assay: Inhibition of CDK3 (unknown origin)

Measured: IC50

Chain of Cyclin-dependent kinase 1 (P06493 whole entry): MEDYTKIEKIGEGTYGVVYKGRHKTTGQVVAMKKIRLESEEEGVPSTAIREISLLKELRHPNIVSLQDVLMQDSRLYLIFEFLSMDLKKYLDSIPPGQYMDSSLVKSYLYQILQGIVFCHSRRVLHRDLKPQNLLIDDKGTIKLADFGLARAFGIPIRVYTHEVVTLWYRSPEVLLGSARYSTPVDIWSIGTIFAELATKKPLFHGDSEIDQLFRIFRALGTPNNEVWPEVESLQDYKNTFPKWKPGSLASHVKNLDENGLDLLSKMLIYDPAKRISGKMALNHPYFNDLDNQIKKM
Chain of Cyclin-dependent kinase 4 (P11802 whole entry): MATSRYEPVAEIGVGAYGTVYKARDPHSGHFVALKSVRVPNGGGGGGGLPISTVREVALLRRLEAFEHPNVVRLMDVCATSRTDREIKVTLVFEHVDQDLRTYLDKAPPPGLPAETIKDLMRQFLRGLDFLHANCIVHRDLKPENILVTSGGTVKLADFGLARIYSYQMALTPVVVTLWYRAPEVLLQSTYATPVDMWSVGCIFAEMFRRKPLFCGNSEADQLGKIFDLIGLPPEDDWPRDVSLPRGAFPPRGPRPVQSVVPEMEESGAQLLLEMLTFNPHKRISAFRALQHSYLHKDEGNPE
Chain of Cyclin-dependent kinase 3 (Q00526 whole entry): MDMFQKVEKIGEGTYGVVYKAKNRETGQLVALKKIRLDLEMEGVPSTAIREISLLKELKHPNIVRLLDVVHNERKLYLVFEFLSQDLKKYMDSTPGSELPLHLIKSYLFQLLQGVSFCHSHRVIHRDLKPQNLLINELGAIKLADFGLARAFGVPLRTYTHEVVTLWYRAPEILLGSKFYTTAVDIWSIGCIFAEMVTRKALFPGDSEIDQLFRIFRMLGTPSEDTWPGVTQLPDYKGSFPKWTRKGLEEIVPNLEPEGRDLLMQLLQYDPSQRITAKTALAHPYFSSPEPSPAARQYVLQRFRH
Chain of Cyclin-dependent kinase 5 (Q00535 whole entry): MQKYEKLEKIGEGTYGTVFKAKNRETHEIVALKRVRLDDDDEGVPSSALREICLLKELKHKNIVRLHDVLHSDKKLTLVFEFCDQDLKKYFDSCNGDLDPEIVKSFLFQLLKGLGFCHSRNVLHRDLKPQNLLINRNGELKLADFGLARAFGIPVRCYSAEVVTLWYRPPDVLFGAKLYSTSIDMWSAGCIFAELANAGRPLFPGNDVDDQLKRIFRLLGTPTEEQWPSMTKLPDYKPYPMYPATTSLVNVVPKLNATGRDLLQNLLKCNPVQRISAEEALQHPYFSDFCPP

COCCN1CCN(Cc2ccc(-c3n[nH]c4c3C(=O)c3c(NC(=O)NN5CCOCC5)cccc3-4)cc2)CC1 [RGB-286638]
< 5 nM: all assays above
